Data taken from patent US8202910B2 (Sequella, Inc., priority 2006, dated 2012).
In brackets after ≈: the same amount, converted by molar mass. Several values for one entry are separate records, joined by “and”; a condition that tells them apart may be missing. Identical values can stand only once. Like-named read-outs stand apart in the source and are kept apart here.

What was measured:
[1] = Toxicity, dose escalation study in mice
Procedure: Toxicity was assessed using a dose escalation study. This study was performed with ten C57BL/6 mice per candidate. Every two days, the mice were administered an increased concentration of the drug, and monitored for detrimental effects. The administration scheme was 50, 100, 200, 400, 600, 800 and 1000 mg/kg.

[2] = test system: H37Rv strain of Mycobacterium tuberculosis; assay: microbe, parasite or virus in culture; format: cell-based
[3] = format: in vitro ADME; details: 6 h
Procedure: (§1) Initially, analytical methods for determination of the compounds had been developed that allowed to carry out all the PK experiments, sec FIG. 29. Here is a brief description of the experiment: (1) plasma spiked with tested compounds and 10 uL of Terfenadine or plasma samples (200 uL) added; (2) ACN (2 mL) added to precipitate protein and spin at 2,500 rpm; (3) evaporate supernatant to dryness; (4) add 200 uL of the diluting solvent: methanol (with 0.1% of trifluoroacetic acid): ammonium acetate (80/20); (5) vortex, spin, and use supernatant; (6) run LC/MS/MS on Sciex API 3000.
Biostability studies of the compounds in plasma were carried out using concentrations 1 and 15 mg/ml. The compounds were incubated for 1, 2, 3 & 6 hr at 37° C. (Table 18).

[4] = test system: monkey kidney cells (Vero); assay: In vitro toxicity, Vero cells; format: cell-based; details: Primates
Procedure: Twenty six compounds (including 37, 59 and 109) were tested in an in vitro model of toxicity using monkey kidney cells (Vero) and human cervical cancer cells (HeLa) using methods well known to those skilled in the art. The data from this toxicity testing and the MIC data were used to calculate a selectivity index (SI), the ratio of IC50:MIC (Table 15). Selectivity Indexes were ranging from 1.76 to 16.67.

in vivo = assay: in vivo; design: species or system mice; details: mouse
Procedure: as §1
Pilot PK study of the compounds 37, 59, and 109 in mice was conducted using a cassette dosing: all the three analogs were formulated together in saline at 1.5 mg/mL, and administered to mice simultaneously orally at 25 mg/kg, peritoneally at 6 mg/kg, and intravenously. […] Obtained data are presented on FIGS. 30, 31, and 32 (tested compounds were studied under the NCI′ indexation NSC) and summarized in Table 19.

[5] = Maximum tolerated dose, one-time gavage dose in mice; format: in vivo
Procedure: […] Each dose of each compound consisted of one group of 3 mice. Monitoring of the mice was done twice a day for the duration of the experiment. […] The MTD (mg/kg) is the highest dose that results in no lethality/tissue abnormality.
• 1. […] The compounds are dissolved in the appropriate concentration of ethanol in distilled water and administered in a volume of 0.2 ml per mouse. • 2. Observation of mice: Mice will be observed 4 and 6 hours post administration, then twice daily for one week. Survival and body weight of mice will be closely monitored throughout the study. • 3. […] Critical organs will be aseptically removed and observed; tissues from the liver, heart, and kidneys are extracted and placed into 10% formalin solution. These fixed tissues are sectioned and examined for abnormalities resulting from drug toxicity.

cells = assay: LD50 for selectivity index (Table 10); format: cell-based, Mycobacterium tuberculosis; details: for SI (Selectivity Index): LD50 : MIC
Source text: Table 10 lists MIC and LD50 data for selected compounds. […] Table 11 lists MIC data for purified substituted ethylene diamines in comparison to ethambutol (EMB).

wild type of M.tb = assay: MIC, secondary screening, wild type; format: cell-based, Mycobacterium tuberculosis; details: WT
M. tuberculosis H37Rv [6] = assay: In vivo efficacy, mice infected i.v. with M. tuberculosis, CFU in spleen and lungs; design: species or system C57BL/6 mice
[7] = test system: RIF^R M. tuberculosis strain 2482; format: cell-based; details: strain 2482
M. tuberculosis H37Rv [8] = assay: MIC by BACTEC 460; format: cell-based, Mycobacterium tuberculosis; details: Mycobacterium tuberculosis, H37RV, reference in head of Table 11; read-out: BACTEC MIC of EMB
[9] = test system: RIF^R M. tuberculosis isolate 2482; assay: microbe, parasite or virus in culture; format: cell-based; details: strain 2482
[10] = test system: RIF^R M. tuberculosis strain 3185; format: cell-based; details: strain 3185
[11] = test system: RIF^R M. tuberculosis isolate 3185; assay: microbe, parasite or virus in culture; format: cell-based
[12] = test system: M. tuberculosis H37Rv (Pasteur); assay: Rapid in vivo model of TB, body weight of infected mice; design: species or system C3H female mice; details: Rif (2 mg/kg)-EMB (10 mg/kg) combination
[13] = test system: H37Rv strain of Mycobacterium tuberculosis; details: background statement; cited from earlier work
M. tuberculosis H37Rv [14] = assay: Standard chronic mouse model of tuberculosis, CFU in lung; format: in vivo, C57BL/6 female mice; details: INH+RIF+EMB at 25, 20 and 100 mg/kg, wk 4
[15] = Mycobacterium tuberculosis, H37RV, Table 10, from uM and MW, read-out: MIC
[16] = Mycobacterium tuberculosis, H37RV, Table 10, read-out: MIC
[17] = Mycobacterium tuberculosis, H37RV, Table 15, read-out: MIC
[18] = concentration at which 50% of the cells are killed
[19] = Mycobacterium tuberculosis, value in brackets, read-out: MIC (or uM)
[20] = Mycobacterium tuberculosis, EMB, RL241, Cmpd#59 as 2HCl salt, Cmpd#109 as 2CF3COOH salt, read-out: MIC

CC1(C)C2CCC(CNCCNCC(c3ccccc3)c3ccccc3)[C@@H]1C2 (stereo partly drawn) [Compound 37, N-(2,2-Diphenylethyl)-N′-(−)-cis-(myrtanyl)ethane-1,2-diamine]
fatal dose ([1]; C57BL/6, mouse, in vivo, 2 days): 100 mg/kg
toxic dose ([1]; dose escalation): 100 mg/kg
MIC [2, 15]: 7.75 µg/mL
MIC [2, 16]: 15.6 µM
MIC [2, 17]: 7.8 µM
Biostability in plasma (% ↓) ([3]; dog): stable
Biostability in plasma (% ↓) ([3]; human): 20% ↓
Biostability in plasma (% ↓) ([3]; mouse): stable
Biostability in plasma (% ↓) ([3]; rat): 35% ↓
IC50 [4]: 32 µM
AUC (in vivo; ip, 6 mg/kg): 1370 ng·h/mL
Cmax (in vivo; ip, 6 mg/kg): 630 ng/mL
Urine excretion (%) (in vivo; ip, 6 mg/kg): <0.01%
bioavailability (in vivo; ip, 6 mg/kg): 72%
half-life (in vivo; ip, 6 mg/kg): 4.9 h
AUC (in vivo; iv, 3 mg/kg): 954 ng·h/mL
Cmax (in vivo; iv, 3 mg/kg): 970 ng/mL
Urine excretion (%) (in vivo; iv, 3 mg/kg): .71%
clearance (in vivo; iv, 3 mg/kg): 58.8 mL/min/kg
half-life (in vivo; iv, 3 mg/kg): 4.8 h
AUC (in vivo; po, 25 mg/kg): 1600 ng·h/mL
Cmax (in vivo; po, 25 mg/kg): 263 ng/mL
bioavailability (in vivo; po, 25 mg/kg): 3.3%
Day of death ([5]; 37 at 100 mg/kg (Table 16)): 1
Mice ([5]; 37 at 100 mg/kg (Table 16), day 1): 2 to 4 h
Mice ([5]; 37 at 100 mg/kg (Table 16), day 2): 2
Mice ([5]; 37 at 100 mg/kg (Table 16), day 3): 2
Mice ([5]; 37 at 100 mg/kg (Table 16), day 4): 2
Mice ([5]; 37 at 100 mg/kg (Table 16), day 6): 2
Mice ([5]; 37 at 100 mg/kg (Table 16), day 7): 2
Mice ([5]; 37 at 100 mg/kg (Table 17), day 1): 3
Mice ([5]; 37 at 100 mg/kg (Table 17), day 2): 3
Mice ([5]; 37 at 100 mg/kg (Table 17), day 3): 3
Mice ([5]; 37 at 100 mg/kg (Table 17), day 4): 3
Mice ([5]; 37 at 100 mg/kg (Table 17), day 5): 3
Mice ([5]; 37 at 100 mg/kg (Table 17), day 6): 3
Mice ([5]; 37 at 100 mg/kg (Table 17), day 7): 3
Mice ([5]; 37 at 300 mg/kg, day 1): 3
Mice ([5]; 37 at 300 mg/kg, day 2): 3
Mice ([5]; 37 at 300 mg/kg, day 3): 3
Mice ([5]; 37 at 300 mg/kg, day 4): 3
Mice ([5]; 37 at 300 mg/kg, day 5): 3
Mice ([5]; 37 at 300 mg/kg, day 6): 3
Mice ([5]; 37 at 300 mg/kg, day 7): 3
changes in organs ([5]; mice surviving one week): No visible changes in organs
SI (Selectivity Index) (cells): 2.048
LD50 (cells; [18]): 32 µM
LD50 (cells; from uM and MW): 15.872 µg/mL

C[C@@H]1[C@H]2C[C@@H](C[C@H]1NCCNC1CCCCCCC1)C2(C)C [Compound 59, N-(Cyclooctyl)-N′-(1R, 2R, 3R, 5S)-(−)-isopinocampheylethane-1,2-diamine]
MIC (wild type of M.tb; [19]): 0.13 µM
MIC (wild type of M.tb; [20]): 0.05 µg/mL
tolerated dose ([1]; C57BL/6, mouse, in vivo): 1000 mg/kg
MIC [2, 15]: 6.66 µg/mL
MIC [2, 16]: 15.6 µM
MIC [2, 17]: 15.6 µM
Biostability in plasma (% ↓) ([3]; dog): stable
Biostability in plasma (% ↓) ([3]; human): stable
Biostability in plasma (% ↓) ([3]; mouse): stable
Biostability in plasma (% ↓) ([3]; rat): stable
IC50 [4]: 36 µM
PK profiling (AUC, Cmax) (in vivo): relatively poor PK profiling
AUC (in vivo; ip, 6 mg/kg): 272 ng·h/mL
Cmax (in vivo; ip, 6 mg/kg): 217 ng/mL
Urine excretion (%) (in vivo; ip, 6 mg/kg): <0.01%
bioavailability (in vivo; ip, 6 mg/kg): 35%
half-life (in vivo; ip, 6 mg/kg): 9.7 h
AUC (in vivo; iv, 3 mg/kg): 384 ng·h/mL
Cmax (in vivo; iv, 3 mg/kg): 296 ng/mL
Urine excretion (%) (in vivo; iv, 3 mg/kg): 1.9%
clearance (in vivo; iv, 3 mg/kg): 134 mL/min/kg
half-life (in vivo; iv, 3 mg/kg): 6.4 h
AUC (in vivo; po, 25 mg/kg): 169 ng·h/mL
Cmax (in vivo; po, 25 mg/kg): 28.7 ng/mL
bioavailability (in vivo; po, 25 mg/kg): 0.9%
anti-tuberculosis activity compared with EMB (M. tuberculosis H37Rv [6]; 10 mg/kg, B6 mice, 5×10^5 CFU, chemotherapy from day 20): comparable to that of EMB at 100 mg/kg
SI (Selectivity Index) (cells): 2.048
LD50 (cells; [18]): 32 µM
LD50 (cells; from uM and MW): 13.632 µg/mL

CC[C@@H](CO)NCCN[C@@H](CC)CO [EMB, Ethambutol, reference compound]
interaction of 0.5 MIC ethambutol with rifampicin [7]: did not show any additive or synergistic activity
MIC (M. tuberculosis H37Rv [8]): 2.5 µg/mL
MIC (wild type of M.tb; [19]): 11.1 µM
MIC (wild type of M.tb; [20]): 3.12 µg/mL
MIC (wild type of M.tb; EMB, RL241, Cmpd#59 as 2HCl salt, Cmpd#109 as 2CF3COOH salt): 1.6 to 1.8 µg/mL
MIC [2]: 8.37 µM and 7.25 µM
MIC ([2]; Mycobacterium tuberculosis, H37RV, read-out: MIC): 7.19 µM
concentration to which the strain was susceptible [9]: 2.5 mg/L
interaction of 0.5 MIC ethambutol with rifampicin [10]: synergy was not observed
MIC ([11]; Mycobacterium tuberculosis, read-out: MIC (BACTEC)): 2.5 µg/mL (≈ 12.2 µM)
concentration to which the strain was susceptible ([11]; strain 3185): 2.5 mg/L
decrease of load of bacteria in organs (M. tuberculosis H37Rv [6]; during 4-6 weeks of chemotherapy): 1.0-2.0 logs
body weight of infected mice [12]: No improvement
Minimum Inhibition Concentration (MIC) [13]: about 5 μg/ml
CFU in lung (M. tuberculosis H37Rv [14]): 3.7 log10CFU
